Results reported in ChEMBL document CHEMBL1135070, “Synthesis of a magnosalin derivative, 4-(3,4,5-trimethoxyphenyl)-6-(2,4,5-trimethoxyphenyl)-2-diethylaminopyrimidine, and the anti-angiogenic and anti-rheumatic effect on mice by oral administration” (Bioorg Med Chem Lett, 2002).

How the values were obtained:
Mus musculus [1] = assay: Antirheumatic effect was determined in mice after combined treatment of TAS-202 (30 mg/kg/day) and indomethacin (1 mg/kg/day) at day 14; type: functional
Mus musculus [2] = assay: Antirheumatic effect was determined in mice after oral administration of a dose of 1 mg/kg/day at day 14; type: functional; details: 336 h
HUVEC [3] = assay: Anti-proliferative effect on human umbilical vein endothelial cells (HUVEC) induced by basic fibroblast growth factor (bFGF); type: functional, cell-based
HUVEC [4] = assay: Anti-proliferative effect on human umbilical vein endothelial cells (HUVEC) induced by endothelial cell growth supplement (ECGS); type: functional, cell-based
HUVEC [5] = assay: Anti-proliferative effect on HUVEC induced by vascular endothelial growth factor (VEGF)at 0.1 uM concentration by measuring [3H]thymidine incorporation; type: functional, Homo sapiens
HUVEC [6] = assay: Anti-proliferative effect on HUVEC induced by basic fibroblast growth factor (bFGF)at 1 uM concentration by measuring [3H]thymidine incorporation; type: functional, Homo sapiens
HUVEC [7] = assay: Anti-proliferative effect on HUVEC induced by fetal bovine serum (FBS) at 0 uM concentration by measuring [3H]thymidine incorporation; type: functional, Homo sapiens
HUVEC [8] = assay: Anti-proliferative effect on HUVEC induced by fetal bovine serum (FBS) at 0.1 uM concentration by measuring [3H]thymidine incorporation; type: functional, Homo sapiens
HUVEC [9] = assay: Anti-proliferative effect on HUVEC induced by fetal bovine serum (FBS) at 0.3 uM concentration by measuring [3H]thymidine incorporation; type: functional, Homo sapiens
HUVEC [10] = assay: Anti-proliferative effect on HUVEC induced by fetal bovine serum (FBS) at 1 uM concentration by measuring [3H]-thymidine incorporation; type: functional, Homo sapiens
HUVEC [11] = assay: Anti-proliferative effect on HUVEC induced by vascular endothelial growth factor (VEGF)at 0.3 uM concentration by measuring [3H]thymidine incorporation; type: functional, Homo sapiens
HUVEC [12] = assay: Anti-proliferative effect on HUVEC induced by vascular endothelial growth factor (VEGF)at 0 uM concentration by measuring [3H]thymidine incorporation; type: functional, Homo sapiens
HUVEC [13] = assay: Anti-proliferative effect on HUVEC induced by vascular endothelial growth factor (VEGF)at 1 uM concentration by measuring [3H]thymidine incorporation; type: functional, Homo sapiens
HUVEC [14] = assay: Anti-proliferative effect on human umbilical vein endothelial cells (HUVEC) induced by ECGS at 0 uM concentration by measuring [3H]thymidine incorporation; type: functional
HUVEC [15] = assay: Anti-proliferative effect on human umbilical vein endothelial cells (HUVEC) induced by ECGS at 0.1 uM concentration by measuring [3H]thymidine incorporation; type: functional
HUVEC [16] = assay: Anti-proliferative effect on human umbilical vein endothelial cells (HUVEC) induced by ECGS at 0.3 uM concentration by measuring [3H]thymidine incorporation; type: functional
HUVEC [17] = assay: Anti-proliferative effect on human umbilical vein endothelial cells (HUVEC) induced by ECGS at 1 uM concentration by measuring [3H]thymidine incorporation; type: functional
HUVEC [18] = assay: Anti-proliferative effect on human umbilical vein endothelial cells (HUVEC) induced by fetal bovine serum (FBS); type: functional, cell-based
HUVEC [19] = assay: Anti-proliferative effect on human umbilical vein endothelial cells (HUVEC) induced by vascular endothelial growth factor (VEGF); type: functional, cell-based
HUVEC [20] = assay: Anti-proliferative effect on human umbilical vein endothelial cells (HUVEC) induced by basic fibroblast growth factor (bFGF) at 0.1 (uM) concentration; type: functional
HUVEC [21] = assay: Anti-proliferative effect on human umbilical vein endothelial cells (HUVEC) induced by basic fibroblast growth factor (bFGF) at 0.3 (uM) concentration; type: functional
HUVEC [22] = assay: Anti-proliferative effect on human umbilical vein endothelial cells (HUVEC) induced by basic fibroblast growth factor (bFGF) at 1 (uM) concentration; type: functional
HUVEC [23] = assay: Anti-proliferative effect on human umbilical vein endothelial cells (HUVEC) induced by endothelial cell growth supplement (ECGS) at 0.3 (uM) concentration; type: functional
HUVEC [24] = assay: Anti-proliferative effect on human umbilical vein endothelial cells (HUVEC) induced by endothelial cell growth supplement (ECGS) at 1 (uM) concentration; type: functional
HUVEC [25] = assay: Anti-proliferative effect on human umbilical vein endothelial cells (HUVEC) induced by fetal bovine serum (FBS) at 0.1 (uM) concentration; type: functional
HUVEC [26] = assay: Anti-proliferative effect on human umbilical vein endothelial cells (HUVEC) induced by fetal bovine serum (FBS) at 1 uM concentration; type: functional
HUVEC [27] = assay: Anti-proliferative effect on human umbilical vein endothelial cells (HUVEC) induced by vascular endothelial growth factor (VEGF) at 0.1 (uM) concentration; type: functional
HUVEC [28] = assay: Anti-proliferative effect on human umbilical vein endothelial cells (HUVEC) induced by vascular endothelial growth factor (VEGF) at 0.3 (uM) concentration; type: functional
HUVEC [29] = assay: Anti-proliferative effect on human umbilical vein endothelial cells (HUVEC) induced by vascular endothelial growth factor (VEGF) at 1 (uM) concentration; type: functional
HUVEC [30] = assay: Anti-proliferative effect on HUVEC induced by basic fibroblast growth factor (bFGF)at 0 uM concentration by measuring [3H]thymidine incorporation; type: functional, Homo sapiens
HUVEC [31] = assay: Anti-proliferative effect on HUVEC induced by basic fibroblast growth factor (bFGF)at 0.1 uM concentration by measuring [3H]thymidine incorporation; type: functional, Homo sapiens
HUVEC [32] = assay: Anti-proliferative effect on HUVEC induced by basic fibroblast growth factor (bFGF)at 0.3 uM concentration by measuring [3H]thymidine incorporation; type: functional, Homo sapiens
[33] = Anti-proliferative activity of KB cells from head and neck cancer cell line induced by fetal bovine serum (FBS) at 0.3 (uM) concentrations for [3H]- thymidine incorporation; type: functional, Homo sapiens, Cancer cell lines
[34] = Anti-proliferative activity of KB cells from head and neck cancer cell line induced by fetal bovine serum (FBS) at 1 (uM) concentrations for [3H]- thymidine incorporation; type: functional, Homo sapiens, Cancer cell lines
[35] = Anti-proliferative activity of KB cells from head and neck cancer cell line induced by fetal bovine serum (FBS) at 0 uM concentrations for [3H]thymidine incorporation; type: functional, Homo sapiens, Cancer cell lines
[36] = Anti-proliferative activity of KB cells from head and neck cancer cell line induced by fetal bovine serum (FBS) at 0.1 (uM) concentrations for [3H]- thymidine incorporation; type: functional, Homo sapiens, Cancer cell lines
[37] = Anti-proliferative activity of KB cells from head and neck cancer cell line induced by fetal bovine serum (FBS) at 0.1 (uM) concentrations for % inhibition; type: functional, Homo sapiens, Cancer cell lines
[38] = Anti-proliferative activity of KB cells from head and neck cancer cell line induced by fetal bovine serum (FBS) at 0.3 (uM) concentrations for % inhibition; type: functional, Homo sapiens, Cancer cell lines
[39] = Anti-proliferative activity of KB cells from head and neck cancer cell line induced by fetal bovine serum (FBS) at 1 (uM) concentration for % inhibition; type: functional, Homo sapiens, Cancer cell lines
Mus musculus [40] = assay: Antirheumatic effect was determined in mice after oral administration of a dose of 30 mg/kg/day at day 14; type: functional; details: 336 h
Homo sapiens [41] = species: Homo sapiens; assay: Anti-proliferative activity on NHDF induced by fetal bovine serum (FBS) at 0 uM concentration by measuring [3H]thymidine incorporation; type: functional
Homo sapiens [42] = species: Homo sapiens; assay: Anti-proliferative activity on NHDF induced by fetal bovine serum (FBS) at 0.1 uM concentration by measuring [3H]thymidine incorporation; type: functional
Homo sapiens [43] = species: Homo sapiens; assay: Anti-proliferative activity on NHDF induced by fetal bovine serum (FBS) at 0.3 uM concentration by measuring [3H]thymidine incorporation; type: functional
Homo sapiens [44] = species: Homo sapiens; assay: Anti-proliferative activity on NHDF induced by fetal bovine serum (FBS) at 1 uM concentration by measuring [3H]thymidine incorporation; type: functional
Homo sapiens [45] = species: Homo sapiens; assay: Anti-proliferative activity of normal human dermal fibroblasts (NHDF) induced by fetal bovine serum (FBS) at 0.3 uM concentration; type: functional
Homo sapiens [46] = species: Homo sapiens; assay: Anti-proliferative activity on normal human dermal fibroblasts (NHDF) induced by fetal bovine serum (FBS) at 0.1 uM concentration; type: functional
Homo sapiens [47] = species: Homo sapiens; assay: Anti-proliferative activity on normal human dermal fibroblasts (NHDF) induced by fetal bovine serum (FBS) at 1 uM concentration; type: functional
HUVEC [48] = assay: Anti-proliferative effect on human umbilical vein endothelial cells (HUVEC) induced by fetal bovine serum (FBS) at 0.3 (uM) concentration; type: functional

Q: Which Inhibition (Mus musculus [1]) does the source give for COc1ccc2c(c1)c(CC(=O)O)c(C)n2C(=O)c1ccc(Cl)cc1 [INDOMETHACIN] here?
A: 75%

Q: And the inhibition in vivo at 1 mg/kg/day (Mus musculus [2])?
A: 22.2%

Q: With CCN(CC)c1nc(-c2cc(OC)c(OC)c(OC)c2)cc(-c2cc(OC)c(OC)cc2OC)n1 as the compound, how does the IC50 (HUVEC [3]) read?
A: 561 nM

Q: What about the IC50 (HUVEC [4]) of the same compound?
A: 148 nM

Q: And the Activity (HUVEC [5])?
A: 1861.3 c.p.m.

Q: What about the Activity (HUVEC [6]) of the same compound?
A: 2969.9 c.p.m.

Q: And the Activity (HUVEC [7])?
A: 595.9 c.p.m.

Q: What about the Activity (HUVEC [8]) of the same compound?
A: 437 c.p.m.

Q: What about the Activity (HUVEC [9]) of the same compound?
A: 154.2 c.p.m.

Q: What about the Activity (HUVEC [10]) of the same compound?
A: 122.8 c.p.m.

Q: And the Activity (HUVEC [11])?
A: 1263.7 c.p.m.

Q: And the Activity (HUVEC [12])?
A: 2077.3 c.p.m.

Q: What about the Activity (HUVEC [13]) of the same compound?
A: 448 c.p.m.

Q: And the Activity (HUVEC [14])?
A: 2810.3 c.p.m.

Q: What about the Activity (HUVEC [15]) of the same compound?
A: 1634.5 c.p.m.

Q: And the inhibition at 0.1 µM (HUVEC [15])?
A: 41.8%

Q: And the Activity (HUVEC [16])?
A: 994.2 c.p.m.

Q: What about the Activity (HUVEC [17]) of the same compound?
A: 359 c.p.m.

Q: And the IC50 (HUVEC [18])?
A: 199 nM

Q: And the IC50 (HUVEC [19])?
A: 398 nM

Q: And the Inhibition (HUVEC [20])?
A: 33.6%

Q: What about the Inhibition (HUVEC [21]) of the same compound?
A: 30.7%

Q: What about the Inhibition (HUVEC [22]) of the same compound?
A: 70.3%

Q: What about the Inhibition (HUVEC [23]) of the same compound?
A: 64.6%

Q: What about the Inhibition (HUVEC [24]) of the same compound?
A: 87.2%

Q: What about the Inhibition (HUVEC [25]) of the same compound?
A: 26.7%

Q: What about the inhibition at 1 µM (HUVEC [26]) of the same compound?
A: 79.4%

Q: And the Inhibition (HUVEC [27])?
A: 10.4%

Q: What about the Inhibition (HUVEC [28]) of the same compound?
A: 39.2%

Q: What about the Inhibition (HUVEC [29]) of the same compound?
A: 78.4%

Q: What about the Activity (HUVEC [30]) of the same compound?
A: 9998.4 c.p.m.

Q: What about the Activity (HUVEC [31]) of the same compound?
A: 6638.9 c.p.m.

Q: What about the Activity (HUVEC [32]) of the same compound?
A: 6927.6 c.p.m.

Q: And the Activity [33]?
A: 15784.2 c.p.m.

Q: What about the Activity [34] of the same compound?
A: 13366.5 c.p.m.

Q: What about the Activity [35] of the same compound?
A: 18896 c.p.m.

Q: What about the Activity [36] of the same compound?
A: 18961.2 c.p.m.

Q: And the Inhibition [37]?
A: -0.3%

Q: What about the Inhibition [38] of the same compound?
A: 16.5%

Q: What about the Inhibition [39] of the same compound?
A: 29.3%

Q: What about the inhibition in vivo at 30 mg/kg/day (Mus musculus [40]) of the same compound?
A: 32.4%

Q: And the Activity (Homo sapiens [41])?
A: 1867.1 c.p.m.

Q: And the Activity (Homo sapiens [42])?
A: 1907.7 c.p.m.

Q: And the Activity (Homo sapiens [43])?
A: 2209.9 c.p.m.

Q: And the Activity (Homo sapiens [44])?
A: 2133.2 c.p.m.

Q: What about the inhibition at 0.3 µM (Homo sapiens [45]) of the same compound?
A: -18.4%

Q: What about the inhibition at 0.1 µM (Homo sapiens [46]) of the same compound?
A: -2.2%

Q: What about the inhibition at 1 µM (Homo sapiens [47]) of the same compound?
A: -14.3%

Q: And the Inhibition (HUVEC [48])?
A: 74.1%
